The text below walks through data of patent US20060084659A1, “Augmentation of psychotherapy with cannabinoid reuptake inhibitors” (priority 2004, published 2006).

The subject of data set [1] is Adult male Sprague-Dawley rats. The data set can be described thus: Extinction of conditioned fear measured by fear-potentiated startle (FPS) after extinction training. The format is in vivo, rat. The following applies: for conditioned fear following extinction training vs vehicle: p<0.01; for fear potentiated startle (FPS) after extinction training: 10 mg/kg AM404, 5 mg/kg rimonabant, alone or together, 30 trial extinction, 24 hrs post extinction training; for extinction of fear (summary of Examples 1-10): systemic application in rats, fear-potentiated startle; for fear (FPS) vs vehicle: 10 mg/kg i.p., 30-trial extinction. As for the experimental part: Animals: Adult male Sprague-Dawley rats (Charles River, Raleigh, N.C., 350-450 g) were used in the present studies. Animals were housed in pairs in a temperature-controlled animal colony, with ad libitum access to food and water, and maintained on a 12 hr light/dark cycle.
(§1) Fear conditioning: All training and testing trials were performed in standardized chambers optimized for the measurement of fear-potentiated startle (see Walker et al. (2002) J. Neurosci. 22: 2343-2351). Animals were pre-exposed to the chambers for 10 min on each of 2 days prior to training for habituation purposes and to minimize the effects of contextual conditioning. On 2 consecutive days following habituation, rats were returned to the same chambers and presented with 10 pairings of a light (3.7 sec) co-terminating with a 0.4-mA, 0.5-sec shock (3.6-min inter-trial interval).
(§2) Matching: Twenty-four hours following the last fear-conditioning session, animals were returned to the same chambers and presented with startle stimuli (50-msec, 95-dB white-noise bursts) in the presence or absence of the light conditioned stimulus (light-CS). Increased startle in the presence of the light-CS was taken as a measure of conditioned fear, and the magnitude of the fear response was calculated as the percentage by which startle increased when the light-CS was presented in compound with the startle stimulus versus when it was omitted (fear-potentiated startle or FPS). Using these measurements, animals were divided into groups displaying approximately equal levels of FPS prior to drug treatment and extinction training.
Extinction training: Five days following the last fear conditioning trial, animals were injected intraperitoneally with a test compound or its vehicle in 1 mL/kg volumes and then immediately returned to the same chambers and presented with 15, 30 or 90 presentations of the light-CS in the absence of footshock (3.7-sec light, 30-sec inter-trial interval). One hour following extinction training, a subset of animals was given a short test consisting of startle stimuli in the presence or absence of the light-CS (2-5 light-startle compounds, values shown are averages of all trials). Twenty-four hrs post-extinction training, all animals were tested for the presence of fear-potentiated startle (15 light-startle compounds).
Statistics: Comparisons were made across drug-treatment groups at each test (e.g. 24-hr groups were compared across treatment groups) using ANOVA or Student's t-test with drug or dose as the independent measure, and using Fischer's LSD test for post-hoc analysis.

In data set [2] the test system is Adult male Sprague-Dawley rats. The data set can be described thus: FPS in fear-conditioned animals without cue re-exposure. In kind it is in vivo, rat. The conditions noted are these: 10 mg/kg AM404 or 5 mg/kg rimonabant; tested 1 hr following drug administration. As for the experimental part: as §1
as §2, with “training. […]” for “training.”

Data set [3] has as its system Adult male Sprague-Dawley rats. The data set can be described thus: Shock reactivity, baseline startle and activity measures. In kind it is in vivo, rat. The conditions noted are these: 10 mg/kg. How it is done: Shock Reactivity, Startle, and Activity Measures: Animals that had been previously fear-conditioned were injected with AM404, placed in the training/testing chambers, and presented with 3 unpaired shocks and 42 startle stimuli (0.4-mA, 0.5-sec shocks, 95-dB noise-burst startle). The same group of animals was returned to the same chambers 3 d later, injected with vehicle, and presented with an identical behavioral test. The values shown are the mean integrated voltages of the accelerometers measured over 200-msec periods beginning at the onset of either the shocks or the startle stimuli. Additionally, a measure of spontaneous motor activity was derived from the mean displacement of the accelerometers in the 2 min prior to delivery of the first shock, while animals were exploring the chambers.
This experiment examined behavioral effects engendered by AM404 treatment. These included the effect of 10 mg/kg AM404 on: 1) shock-reactivity as a measure of pain sensitivity; 2) baseline startle as one measure of anxiety; and 3) general motor activity within the training chambers. Animals were fear-conditioned and then returned to the training chamber several days later and administered 10 mg/kg AM404. Following drug administration, animals were presented with 3 shocks and 42 startle stimuli identical to those used in the above studies. Subsequently, the same animals were returned to the testing chamber 3 days later, injected with vehicle, and similarly tested.

Data set [4] deals with Adult male Sprague-Dawley rats. The data set can be described thus: Shock-induced reinstatement of fear. The format is in vivo, rat. How it is done: Reinstatement: Animals that had been previously fear-conditioned and extinction-trained were returned to the testing chamber 48 hours and sometimes 96 hours following extinction training and presented with 3 footshocks in the absence of the light-CS (0.4 mA, 0.5 sec shock, 2 min inter-trial interval). Immediately following the unpaired shocks, animals were tested for the presence of fear-potentiated startle (15 light-startle compounds).
Shock-induced reinstatement was examined 2 days following treatment with AM404 or vehicle during extinction. Previous studies have shown that the level of fear following reinstatement is dependent both on the level of the stressor and the amount of previous extinction, as long as the stressor is delivered in the same context as the original training context (Rescorla & Heth (1975). J. Exp. Psychol. Anim. Behav. Process. 1(1): 88-96; Bouton & King (1983) J. Exp. Psychol. Anim. Behav. Process. 9: 248-265). As animals were matched for equivalent FPS prior to extinction training, the susceptibility of animals to reinstatement can be taken as a secondary measure of the strength of extinction training, and perhaps as a preliminary measure of the resiliency of these inhibitory extinction memories to stressors. […]

For data set [5] the following is noted: intra-amygdala infusions; fear-potentiated startle (AP5 also freezing); cited from earlier work.
For data set [6] the following is noted: PD98059 systemic and intra-amygdala infusions; AP5 intra-amygdala infusions; cited from earlier work.
For data set [7] the following is noted: cited from earlier work.
For data set [8] the following is noted: doses greater than 5 mg/kg; Herzberg et al. 1997; cited from earlier work.

By half-life is commonly meant the time needed for the level to fall by half in the phase considered.

Regarding `Cc1c(C(=O)NN2CCCCC2)nn(-c2ccc(Cl)cc2Cl)c1-c1ccc(Cl)cc1` [rimonabant], in data set [1] (1.5 mg/kg i.p., 90-trial extinction, 24 hrs post-extinction), the “conditioned fear following extinction training vs vehicle” value was “significantly higher levels of conditioned fear than vehicle-treated controls”. Also, the “conditioned fear following extinction training vs vehicle” value in data set [1] (5 mg/kg i.p., 90-trial extinction, 24 hrs post-extinction) is reported as “significantly higher levels of conditioned fear than vehicle-treated controls”. Moreover, in data set [1], the “fear potentiated startle (FPS) after extinction training” value is on record as “no decrease in fear potentiated startle” and the “extinction of fear (summary of Examples 1-10)” value (“extinction of fear” below) is “dose-dependently blocks extinction of fear”. In addition, the “extinction retention (fear in the presence of the light-CS)” value in data set [1] (90-trial extinction, acute administration immediately prior to extinction training, tested 24 hrs following extinction training) was “profound disruption of extinction retention”. Besides, the “FPS when cue re-exposure omitted” value in data set [2] is “no effect on FPS”.
Turning to `CCCCC/C=C\C/C=C\C/C=C\C/C=C\CCCC(=O)Nc1ccc(O)cc1` [AM404, N-(4-hydroxyphenyl)arachidonamide], the “shock reactivity (pain sensitivity)” value in data set [3] (3 footshocks, p>0.5) is given as “little effect”. The “baseline startle (anxiety)” value in data set [3] (p=0.45) was “non-significant trend toward decreased baseline startle”. In data set [3] (p>0.5), the “overall locomotor activity levels in the testing chamber” value was “little effect”. Further, in data set [4] (2 mg/kg and 10 mg/kg groups pooled, drug given prior to extinction training, 48 hrs prior to reinstatement with 3 footshocks, p<0.05), the reinstatement-induced conditioned fear entry is “less reinstatement-induced conditioned fear”. Moreover, the “within-session extinction (change in FPS) after reinstatement” value in data set [4] (first 4 trials of testing following reinstatement, Trial X Drug p<0.02) was “little change”. Besides, in data set [1], the “fear potentiated startle (FPS) after extinction training” value is listed as “significant extinction”. Also, the “fear (FPS) vs vehicle” value is “significantly less fear than vehicle-treated controls” in data set [1] (1 hr post extinction, p<0.05) and “significantly less than vehicle-treated animals” in data set [1] (24 hrs post-extinction, post-hoc p<0.05). In addition, in data set [1] (prior to 30-trial extinction training, 24 hrs following extinction training, main effect of drug p<0.05), the “extinction retention (fear in the presence of the CS)” value is listed as “enhancement of extinction retention”. The “extinction of fear” value in data set [1] is “dose-dependently enhances extinction of fear”. For the same compound, in data set [2], the “FPS when cue re-exposure omitted” value is on record as “no effect on FPS”.
For the compound `NC(CCCP(=O)(O)O)C(=O)O` (stereo not shown) [AP5], the extinction result in data set [5] is reported as “block extinction”. In data set [6], the fear conditioning result is on record as “block fear conditioning”.
Take `COc1cccc(-c2cc(=O)c3ccccc3o2)c1N` [PD98059]: the extinction result in data set [5] is reported as “disrupt extinction”. The fear conditioning result in data set [6] is “disrupt fear-conditioning”.
Regarding `N[C@@H]1CONC1=O` [DCS, D-cycloserine], in data set [7] (in vivo), the half-life is 10 h, the route of excretion entry is given as “primarily renally excreted” and the “time of peak blood levels after dosing” value was 3 to 8 h. Moreover, in data set [7] (infrequent, subjects on chronic dosing schedules, generally chronically ill with tuberculosis), the side effects result was “drowsiness, headache, confusion, tremor, vertigo, and memory difficulties, paresthesias, and seizure”.
Regarding `Cc1c(C(=O)c2cccc3ccccc23)c2cccc3c2n1[C@H](CN1CCOCC1)CO3` [WIN 55-212,2], the “locomotor and analgesic effects” value in data set [8] was “prominent locomotor and analgesic effects”. Moreover, in data set [1] (5 mg/kg single dose prior to 30-trial extinction training), the “extinction retention (reduction in fear)” value was “did not augment the non-significant reduction in fear”.
As to `NC(=O)c1cccc(-c2cccc(OC(=O)NC3CCCCC3)c2)c1` [URB597, cyclohexylcarbamic acid 3′-carbamoylbiphenyl-3-yl ester], the “reduction in fear within the testing session” value in data set [1] (15-trial extinction, relative to animals receiving no drug) is listed as “greater reductions in fear within the testing session”. In addition, the “average decrease in FPS relative to pre-extinction levels” value in data set [1] (15-trial extinction, testing sessions 48 and 96 hours after extinction training) is “approximately 30%”. Also, in data set [1] (prior to 15-trial extinction training, 48 hrs following extinction training), the “extinction retention (fear in the presence of the CS)” value is “enhancement of extinction retention”. The “extinction of fear” value in data set [1] is on record as “dose-dependently enhances extinction of fear”.
